Literature values, collected in patent publication US8450357B2, “Compositions comprising an aryl pyrazole and/or a formamidine, methods and uses thereof” (Merial Limited, priority 2008, dated 2013).

Conditions: 14C radiolabeled drug, spot-on administration, beagle dogs; cited from earlier work

N#Cc1nn(-c2c(Cl)cc(C(F)(F)F)cc2Cl)c(N)c1[S+]([O-])C(F)(F)F (stereo not shown) [fipronil, 5-amino-3-cyano-1-(2,6-dichloro-4-trifluoromethylphenyl)-4-trifluoromethylsulfinylpyrazole]
time detected in the whole skin after treatment: up to 56 days
